Results taken from ChEMBL document CHEMBL1157260, “Cytotoxic diterpenes from Cassipourea madagascariensis from the Madagascar rainforest” (J Nat Prod, 2006).
≈ marks a conversion by molar mass, not a printed value.

Tested on: A2780
Assay: Cytotoxicity against human A2780 cells by clonogenic assay
Format: functional, cell-based

SMILES	IC50 [µg/mL]
CC(=O)OC/C=C(\C)CCCC(C)CC[C@H]1[C@@H](C)CCCC1(C)C (stereo not given in full) [CASSIPOURYL ACETATE]	2.8
C=C(CO)[C@@H]1CC[C@]2(C)CC[C@]3(C)[C@H](CC[C@@H]4[C@@]5(C)CC[C@H](O)C(C)(C)[C@@H]5CC[C@]43C)[C@@H]12	12.2 (≈ 27.6 µM)
C=C(CO)[C@@H]1CC[C@]2(C)CC[C@]3(C)[C@H](CC[C@@H]4[C@@]5(C)CCC(=O)C(C)(C)[C@@H]5CC[C@]43C)[C@@H]12	16.4 (≈ 37.2 µM)
COc1cc(O)c2c(=O)c(OC)c(-c3cc(OC)c(OC)c(OC)c3)oc2c1 [COMBRETOL]	8.7 (≈ 22.4 µM)
C/C(=C\CO)CCCC(C)CC[C@H]1[C@@H](C)CCCC1(C)C (stereo not given in full) [CASSIPOUROL]	2.4 (≈ 8.15 µM)
